One data set relates to LCMV. The note with it: mouse, in vivo.
Data set [1] concerns CD8+ T cells producing IFN-γ and TNF-α. Kind of data set: Virus-specific CD8+ T-cell activity, ICCS assay. The data set is classed as in vivo, mouse.
Data set [2] is described as follows: Trafficking of OG-CPMV in vivo by tissue fluorescence measurements. The note with it: oral, exception GI tissues and lymph nodes in 1 of 3 mice. Details: species or system mouse. The method, then:
Inoculation of mice with free Oregon Green 488 dye. Mice were administered 3.81 μg per mouse of free OG-488 dye by oral gavage, the equivalent amount of dye as that attached to the CPMV particles given by oral gavage. One mouse per day for three days post inoculation was perfused and tissues were isolated for fluorescence measurements. Similarly, by the intravenous route three mice were injected with 0.509 μg per mouse of free OG-488 dye, the equivalent amount of dye as that attached to the CPMV particles administered i.v. Tissues were harvested from mice following perfusion as described above.
Fluorescence measurements. Tissues were isolated and homogenized in PBS, then centrifuged at 10,000 g for 10 minutes at 4° C. to precipitate the cell debris. The OG-488-specific fluorescence emissions in the clarified tissue supernatants were determined using a Varian Cary Eclipse fluorescence spectrophotometer. A control sample of sham-inoculated tissue supernatant from each tissue was spiked with a known amount of OG-CPMV and the tissue-specific dye excitation and emission were determined for each tissue. The determined tissue specific emission λ value was then used in five separate scans of each tissue supernatant sample, following which the spectra were averaged and the emission value of the sham-inoculated control sample was subtracted as background.

A further data set has as its system HUVECS. As to the kind of experiment: Endothelial cell migration assay. Format: cell-based, human. The method, then:
Endothelial cell migration assay. Migration of calcein AM labeled cells (5 μM, 30 min, at 37° C.) was tested in the presence or absence of the CPMV chimeras using cell migration chambers Briefly, the lower wells were loaded with buffers containing various chemo-attractants. The framed filter membrane was positioned on the top and 50,000 calcein labeled HUVECs treated with/without the targeting chimeras were added to the top well above the membrane. The assembly was incubated for 2 h at 37° C. and the number of cells that transmigrated to the bottom wells was quantified by measuring the intensity of fluorescence at 488 nm.

On to “Lymphocytic choriomeningitis virus (LCMV), Armstrong strain”, for which, in the data set on LCMV, the “survival of lethal i.c. LCMV challenge” value was “enabled the mice to survive the lethal i.c. inoculation” and the “survival of lethal i.c. LCMV challenge, boost experiment” value is on record as “All mice inoculated with LCMV 6 weeks before survived”. For the same substance, in data set [1] (assay 8 days after boosting), the “CD8+ T cells producing IFN-γ” value amounted to 13.53% and the “CD8+ T cells producing TNF-α” value was determined as 7.3%. In data set [1] (primary response assay), the “CD8+ T-cells producing IFN-γ” value is recorded as 10% and the “CD8+ T-cells producing TNF-α” value came to 6.5%.

For the substance “Oregon Green 488 (OG-488) carboxylic acid, succinimidyl ester [free OG-488 dye]”, in data set [2], the “fluorescence in tissues due to free dye” value is “negligible in all tissues at all time points”.

For VEGF [reference compound], the “stimulation of migration of cells across the filter” value in the data set on HUVECS came out at 30%.

Source of the values: patent publication US20060216238A1, “Compositions and methods for targeting or imaging a tissue in a vertebrate subject” (priority 2005, published 2006).
